Results taken from publication PMC3701955 (Bioorganic & medicinal chemistry, 2012).
Where two headings read alike, the source gives them in different places.

Experiments:
OTR of the CNS = molecular target: T1, OTR of the CNS (Rattus norvegicus, UniProt P70536); experiment: PET imaging of the brain using a rat model; assay type: in vivo, Sprague–Dawley rats; details: rats, 90 min ([18F]3) or 45 min ([11C]4) scan
T1 sequence (P70536 1-388): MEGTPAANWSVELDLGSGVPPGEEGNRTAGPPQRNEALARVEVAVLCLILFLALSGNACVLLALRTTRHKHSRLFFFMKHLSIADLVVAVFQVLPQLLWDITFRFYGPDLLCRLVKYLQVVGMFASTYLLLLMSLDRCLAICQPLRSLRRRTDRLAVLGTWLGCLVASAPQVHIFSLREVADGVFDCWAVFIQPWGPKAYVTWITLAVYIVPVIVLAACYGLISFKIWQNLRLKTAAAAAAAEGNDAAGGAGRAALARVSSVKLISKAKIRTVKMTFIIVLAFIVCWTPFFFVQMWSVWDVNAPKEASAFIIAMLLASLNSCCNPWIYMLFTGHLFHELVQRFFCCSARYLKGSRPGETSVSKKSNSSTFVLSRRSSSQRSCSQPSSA

[1] = assay type: in vivo; details: female Sprague–Dawley rats, iv; for Biodistribution of radioactivity, Liver: mean ± SD

| Compound | viability for in vivo PET imaging of brain OTR (OTR of the CNS) | in vivo stability of the radiolabel (thyroid / bone uptake over time) [1] | Biodistribution of radioactivity, Liver ([1]; 15 min) | Biodistribution of radioactivity, Liver ([1]; 30 min) | Biodistribution of radioactivity, Liver ([1]; 60 min) | Biodistribution of radioactivity, Liver ([1]; 120 min) |
| --- | --- | --- | --- | --- | --- | --- |
| CS(=O)(=O)N1CCC(Oc2ccc(CC(=O)N3CCC(N4C(=O)CCc5ccccc54)CC3)c(O[11CH3])c2)CC1 [[^11C]4, 1-(1-(2-(2-[^11C]methoxy-4-((1-(methylsulfonyl)piperidin-4-yl)oxy)phenyl)acetyl)piperidin-4-yl)-3,4-dihydroquin olin-2(1H)-one] | not viable for in vivo PET imaging of the OTR of the CNS |  |  |  |  |  |
| 1-(4-(3,4-Dihydroquinolin-1(2H)-yl)piperidin-1-yl)-2-(2-(2-[^18F]fluoroethoxy)-4-((1-(methylsulfonyl)piperidin-4-yl)oxy)phenyl)ethanone [[^18F]3] | not viable for in vivo PET imaging of the OTR of the CNS | appeared to remain intact | 1.81 ± 0.36 %ID/g | 1.41 ± 0.17 %ID/g | 0.98 ± 0.44 %ID/g | 1.18 ± 0.18 %ID/g |
